Data as given in PMC11178545, “Alkynyl nicotinamides show antileukemic activity in drug-resistant acute myeloid leukemia” (The Journal of Clinical Investigation, 2024).

Experiments:
[1] = tested on: MOLM14 FLT3ITD-D835Y cell line; assay: AML cell line inhibition, WST-1 (SAR); assay type: cell-based, human; details: Homo sapiens, MOLM-14; MOLM14 FLT3ITD-D835Y cell line
Experimental: MOLM14 and MV411 cells were purchased from ATCC. […] MV411-luc cells were a gift from Sharyn Baker (The Ohio State University College of Pharmacy, Columbus, Ohio, USA). All cells were grown in RPMI supplemented with 10% FBS. One day prior to drug addition, 5 × 10^3 cells/well were plated in a 96-well plate. The next morning, HSN748 was serially diluted in DMSO, added to RPMI media and then added to cells. The assay was terminated 72 hours later with water soluble tertrazolium (WST-1; Clontech) and plates were read after an additional 4-hour incubation at 37°C using BioTeK HT plate reader (BioTek). Data were analyzed and graphed using GraphPad Prism Software (GraphPad). IC50s were calculated on GraphPad.

[2] = tested on: FLT3 ITD; assay: FRET binding kinetics and residence time; details: for FRET signal, binding kinetics: FLT3 ITD
Experimental: In vitro kinase assays were performed at DiscoverX. […] Kinases used in the panel are tagged with DNA barcodes. Screening “hits” are identified by measuring the amount of kinase still bound to the immobilized ligand after compound treatment by using a quantitative, precise, and ultra-sensitive qPCR method that detects the associated DNA label. […] Residence time determination assays were conducted by Enzymlogic.

[3] = tested on: phosphorylation of FLT3, STAT5, and ERK; assay: Pharmacodynamics in subcutaneous MOLM14 tumors (pFLT3, pSTAT5, pERK); assay type: in vivo, mice; details: single dose, in words
From the text: Tumor cell growth was monitored by imaging for bioluminescence as a measure of disease burden.
Mice were imaged 3 days later and sorted into 5 mice per group so that luminescence (as a surrogate marker for disease burden) was equal. Dosing started the same day and continued once daily, 5 days/week. Mice were imaged for efficacy once per week and body weight recorded daily. Mice were euthanized when 20% body weight loss, hind limb paralysis, or lack of ability to eat/drink (moribund) were noted. […] Blood samples were collected at indicated time points, and levels of […] in plasma were quantified by LC/MS. Western blots of tumors resected from animals after dosing was performed as described above.

[4] = tested on: FLT3 and ERK phosphorylation in BaF3 cells expressing FLT3 mutants; assay: Western blot of FLT3 and ERK activation in BaF3 cells; assay type: cell-based, murine; details: 1 hour, in words
Experimental: (B) Distance distribution plots using MD simulations. […] Data presented were pooled from 3 independent experiments. […] This was followed by Western blotting.
Whole cell lysates were prepared in RIPA buffer with protease and phosphatase inhibitors.

CN1CCN(Cc2ccc(NC(=O)c3cncc(C#Cc4cnc5cccnn45)c3)cc2C(F)(F)F)CC1 [HSN748]
IC50 [1]: 5 nM
FRET signal, binding kinetics ([2]; 1 nM, 2 min): 1512.06
FRET signal, binding kinetics ([2]; 1 nM, 2.77 min): 1487.03
FRET signal, binding kinetics ([2]; 1 nM, 3.53 min): 1572.91
FRET signal, binding kinetics ([2]; 1 nM, 4.3 min): 1613.6
FRET signal, binding kinetics ([2]; 1 nM, 5.07 min): 1530.78
FRET signal, binding kinetics ([2]; 1 nM, 5.83 min): 1590.19
FRET signal, binding kinetics ([2]; 1 nM, 7.37 min): 1585.41
FRET signal, binding kinetics ([2]; 1 nM, 8.13 min): 1581.76
FRET signal, binding kinetics ([2]; 1 nM, 8.9 min): 1498.93
FRET signal, binding kinetics ([2]; 1 nM, 13.9 min): 1583.26
FRET signal, binding kinetics ([2]; 1 nM, 18.9 min): 1647.78
FRET signal, binding kinetics ([2]; 1 nM, 23.9 min): 1638.88
FRET signal, binding kinetics ([2]; 1 nM, 28.9 min): 1586.36
FRET signal, binding kinetics ([2]; 1 nM, 38.9 min): 1562.79
FRET signal, binding kinetics ([2]; 1 nM, 43.9 min): 1648.68
FRET signal, binding kinetics ([2]; 1 nM, 48.9 min): 1595.35
FRET signal, binding kinetics ([2]; 1 nM, 53.9 min): 1532.83
FRET signal, binding kinetics ([2]; 1 nM, 58.9 min): 1596.3
FRET signal, binding kinetics ([2]; 1 nM, 63.9 min): 1539.46
FRET signal, binding kinetics ([2]; 1 nM, 68.9 min): 1619.86
FRET signal, binding kinetics ([2]; 1 nM, 83.9 min): 1598.54
FRET signal, binding kinetics ([2]; 1 nM, 98.9 min): 1544.46
FRET signal, binding kinetics ([2]; 10 nM, 2 min): 1556.76
FRET signal, binding kinetics ([2]; 10 nM, 2.77 min): 1532
FRET signal, binding kinetics ([2]; 10 nM, 3.53 min): 1494.49
FRET signal, binding kinetics ([2]; 10 nM, 4.3 min): 1511.28
FRET signal, binding kinetics ([2]; 10 nM, 5.07 min): 1435.31
FRET signal, binding kinetics ([2]; 10 nM, 5.83 min): 1564.74
FRET signal, binding kinetics ([2]; 10 nM, 7.37 min): 1479.54
FRET signal, binding kinetics ([2]; 10 nM, 8.13 min): 1456.37
FRET signal, binding kinetics ([2]; 10 nM, 8.9 min): 1494.89
FRET signal, binding kinetics ([2]; 10 nM, 13.9 min): 1496.84
FRET signal, binding kinetics ([2]; 10 nM, 18.9 min): 1488.39
FRET signal, binding kinetics ([2]; 10 nM, 23.9 min): 1452.19
FRET signal, binding kinetics ([2]; 10 nM, 28.9 min): 1416.74
FRET signal, binding kinetics ([2]; 10 nM, 38.9 min): 1434.42
FRET signal, binding kinetics ([2]; 10 nM, 43.9 min): 1355.13
FRET signal, binding kinetics ([2]; 10 nM, 48.9 min): 1398.18
FRET signal, binding kinetics ([2]; 10 nM, 53.9 min): 1334.89
FRET signal, binding kinetics ([2]; 10 nM, 58.9 min): 1357.06
FRET signal, binding kinetics ([2]; 10 nM, 63.9 min): 1378.07
FRET signal, binding kinetics ([2]; 10 nM, 68.9 min): 1344.3
FRET signal, binding kinetics ([2]; 10 nM, 83.9 min): 1246.36
FRET signal, binding kinetics ([2]; 10 nM, 98.9 min): 1307.33
FRET signal, binding kinetics ([2]; 100 nM, 2 min): 1334.87
FRET signal, binding kinetics ([2]; 100 nM, 2.77 min): 1338.71
FRET signal, binding kinetics ([2]; 100 nM, 3.53 min): 1298.24
FRET signal, binding kinetics ([2]; 100 nM, 4.3 min): 1250.88
FRET signal, binding kinetics ([2]; 100 nM, 5.07 min): 1250
FRET signal, binding kinetics ([2]; 100 nM, 5.83 min): 1333.21
FRET signal, binding kinetics ([2]; 100 nM, 7.37 min): 1201.9
FRET signal, binding kinetics ([2]; 100 nM, 8.13 min): 1255.37
FRET signal, binding kinetics ([2]; 100 nM, 8.9 min): 1263.82
FRET signal, binding kinetics ([2]; 100 nM, 13.9 min): 1211.36
FRET signal, binding kinetics ([2]; 100 nM, 18.9 min): 1144.36
FRET signal, binding kinetics ([2]; 100 nM, 23.9 min): 1077.9
FRET signal, binding kinetics ([2]; 100 nM, 28.9 min): 1050.79
FRET signal, binding kinetics ([2]; 100 nM, 38.9 min): 975.65
FRET signal, binding kinetics ([2]; 100 nM, 43.9 min): 956.2
FRET signal, binding kinetics ([2]; 100 nM, 48.9 min): 922.13
FRET signal, binding kinetics ([2]; 100 nM, 53.9 min): 892.86
FRET signal, binding kinetics ([2]; 100 nM, 58.9 min): 898.11
FRET signal, binding kinetics ([2]; 100 nM, 63.9 min): 902.59
FRET signal, binding kinetics ([2]; 100 nM, 68.9 min): 872.96
FRET signal, binding kinetics ([2]; 100 nM, 83.9 min): 832.56
FRET signal, binding kinetics ([2]; 100 nM, 98.9 min): 864.08
FRET signal, binding kinetics ([2]; 1000 nM, 2 min): 1010.31
FRET signal, binding kinetics ([2]; 1000 nM, 2.77 min): 923.69
FRET signal, binding kinetics ([2]; 1000 nM, 3.53 min): 953.68
FRET signal, binding kinetics ([2]; 1000 nM, 4.3 min): 956.11
FRET signal, binding kinetics ([2]; 1000 nM, 5.07 min): 958.83
FRET signal, binding kinetics ([2]; 1000 nM, 5.83 min): 826.74
FRET signal, binding kinetics ([2]; 1000 nM, 7.37 min): 886.29
FRET signal, binding kinetics ([2]; 1000 nM, 8.13 min): 862.35
FRET signal, binding kinetics ([2]; 1000 nM, 8.9 min): 825.31
FRET signal, binding kinetics ([2]; 1000 nM, 13.9 min): 870.86
FRET signal, binding kinetics ([2]; 1000 nM, 18.9 min): 793.49
FRET signal, binding kinetics ([2]; 1000 nM, 23.9 min): 753.95
FRET signal, binding kinetics ([2]; 1000 nM, 28.9 min): 726.19
FRET signal, binding kinetics ([2]; 1000 nM, 38.9 min): 747.74
FRET signal, binding kinetics ([2]; 1000 nM, 43.9 min): 750.06
FRET signal, binding kinetics ([2]; 1000 nM, 48.9 min): 700.07
FRET signal, binding kinetics ([2]; 1000 nM, 53.9 min): 725.06
FRET signal, binding kinetics ([2]; 1000 nM, 58.9 min): 665.35
FRET signal, binding kinetics ([2]; 1000 nM, 63.9 min): 690.63
FRET signal, binding kinetics ([2]; 1000 nM, 68.9 min): 665.35
FRET signal, binding kinetics ([2]; 1000 nM, 83.9 min): 692.83
FRET signal, binding kinetics ([2]; 1000 nM, 98.9 min): 673.59
drug occupancy compared with Gilteritinib ([2]; ratio of residence times): 6.4 fold
phosphorylation of FLT3, STAT5, and ERK in tumors at 24 hours [3]: suppression of phosphorylation was maintained
inhibition of phosphorylation of FLT3 and activation of ERK compared with AC220 [4]: to a greater extent than AC220
